Measurements as given in patent publication US20150250174A1, “USE OF N-THIO-ANTHRANILAMIDE COMPOUNDS ON CULTIVATED PLANTS” (BASF SE, priority 2012, published 2015).

Experiments:
[1] = system: Anticarsia gemmatalis; experiment: Another test on a non-GM soybean variety (feeding damage); assay type: in vivo; conditions: 12.5 g a.i./ha
[2] = system: Anticarsia gemmatalis; conditions: 12.5 g a.i./ha; 5 days after application; GMO soybean BMX Potencia RR
[3] = system: Anticarsia gemmatalis; experiment: whole plant or invertebrate; conditions: in Glycine max, 48 h, read-out: mortality 2 DAA

CCS(CC)=NC(=O)c1cc(Cl)cc(C)c1NC(=O)c1cc(C(F)(F)F)nn1-c1ncccc1Cl [compound I-11, 2-(3-chloro-2-pyridyl)-N-[2-methyl-4-chloro-6-[(diethyl-λ^4-sulfanylidene)carbamoyl]phenyl]-5-(trifluoromethyl)pyrazole-3-carboxamide]
reduction in feeding damage compared to the untreated controls [1]: 97%
reduction of feeding damage compared to the untreated controls [2]: 100%
mortality at 6.25 g/ha [3]: 83%
mortality at 50 g/ha [3]: 87%
